Results from ChEMBL document CHEMBL1148666, “Inhibition of protein tyrosine phosphatase 1B by diterpenoids isolated from Acanthopanax koreanum” (Bioorg Med Chem Lett, 2006).

Target: T1, Tyrosine-protein phosphatase non-receptor type 1 (Homo sapiens, UniProt P18031)
T1 sequence (P18031 whole entry): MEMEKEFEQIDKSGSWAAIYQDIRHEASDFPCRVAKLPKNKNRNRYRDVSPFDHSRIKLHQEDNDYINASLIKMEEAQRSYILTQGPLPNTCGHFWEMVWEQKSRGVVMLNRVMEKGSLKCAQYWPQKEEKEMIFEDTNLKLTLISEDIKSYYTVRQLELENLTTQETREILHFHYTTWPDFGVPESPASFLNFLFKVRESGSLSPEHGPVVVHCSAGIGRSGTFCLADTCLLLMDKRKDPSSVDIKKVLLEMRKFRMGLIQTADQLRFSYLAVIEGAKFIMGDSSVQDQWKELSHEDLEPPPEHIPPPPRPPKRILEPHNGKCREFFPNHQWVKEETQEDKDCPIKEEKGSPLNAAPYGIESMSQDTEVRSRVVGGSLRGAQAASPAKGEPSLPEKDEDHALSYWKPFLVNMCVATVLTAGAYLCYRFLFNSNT
Assay: Inhibition of human recombinant PTP1B

SMILES	IC50 [µM]
CC(C)CC(=O)OC[C@@]1(O)C[C@@]23CCC4[C@@](C)(CCC[C@@]4(C)C(=O)O)C2CC[C@@H]1C3 (some centres undefined)	> 30
C[C@@]12CCC[C@@](C)(C(=O)O)C1CC[C@@]13C[C@@H](CCC12)[C@](C)(O)C3 (some centres undefined)	> 30
C=C[C@]1(C)CC[C@@]2(O)[C@@H](C1)C(=O)CC1[C@](C)(C(=O)O)CCC[C@]12C (some centres undefined) [ACANTHOKOREOIC ACID A]	> 30
C=C[C@@]1(C)CC=C2C(CCC3[C@](C)(CO)CCC[C@@]23C)C1 (some centres undefined) [ACANTHOL]	> 30

Results, then the compound that gave them:

IC50 [µM]	SMILES
> 30	C=C[C@]1(C)C=C2C(CC1)[C@]1(C)CCC[C@@](C)(C(=O)O)C1C[C@@H]2O (some centres undefined)
7.1	CC(C)CC(=O)OC[C@H]1C[C@@]23CCC4[C@@](C)(CCC[C@@]4(C)C(=O)O)C2CC[C@@H]1C3 (some centres undefined)
4.5	CCCCCCCCCCCCCCCC(=O)C1=C(O)[C@@H](CO)OC1=O
23.5	C=C[C@@]1(C)CC=C2C(CCC3[C@](C)(C(=O)O)CCC[C@@]23C)C1 (some centres undefined) [ACANTHOIC ACID]
20.2	C=C1C[C@@]23CC[C@H]4[C@@](C)(CCC[C@@]4(C)C(=O)O)[C@@H]2CC[C@@H]1C3 [KAURENOIC ACID]
